Reference: ChEMBL document CHEMBL1146318, “Synthesis and SAR of novel 2-arylthiazolidinones as selective analgesic N-type calcium channel blockers” (Bioorg Med Chem Lett, 2007)
pIC50: −log10 of the molar value.

Assays:
[1] = Inhibition of calcium channel L type in IMR32 cells; type: cell-based, Homo sapiens; details: imr-32
Homo sapiens = organism: Homo sapiens; experiment: Selectivity for calcium channel Cav2.2 over calcium channel L type
[2] = biological target: Voltage-dependent N-type calcium channel subunit alpha-1B (Homo sapiens, UniProt Q00975); experiment: Inhibition of calcium channel Cav2.2 in IMR32 cells; type: cell-based, IMR-32
Voltage-dependent N-type calcium channel subunit alpha-1B, sequence (Q00975 whole entry): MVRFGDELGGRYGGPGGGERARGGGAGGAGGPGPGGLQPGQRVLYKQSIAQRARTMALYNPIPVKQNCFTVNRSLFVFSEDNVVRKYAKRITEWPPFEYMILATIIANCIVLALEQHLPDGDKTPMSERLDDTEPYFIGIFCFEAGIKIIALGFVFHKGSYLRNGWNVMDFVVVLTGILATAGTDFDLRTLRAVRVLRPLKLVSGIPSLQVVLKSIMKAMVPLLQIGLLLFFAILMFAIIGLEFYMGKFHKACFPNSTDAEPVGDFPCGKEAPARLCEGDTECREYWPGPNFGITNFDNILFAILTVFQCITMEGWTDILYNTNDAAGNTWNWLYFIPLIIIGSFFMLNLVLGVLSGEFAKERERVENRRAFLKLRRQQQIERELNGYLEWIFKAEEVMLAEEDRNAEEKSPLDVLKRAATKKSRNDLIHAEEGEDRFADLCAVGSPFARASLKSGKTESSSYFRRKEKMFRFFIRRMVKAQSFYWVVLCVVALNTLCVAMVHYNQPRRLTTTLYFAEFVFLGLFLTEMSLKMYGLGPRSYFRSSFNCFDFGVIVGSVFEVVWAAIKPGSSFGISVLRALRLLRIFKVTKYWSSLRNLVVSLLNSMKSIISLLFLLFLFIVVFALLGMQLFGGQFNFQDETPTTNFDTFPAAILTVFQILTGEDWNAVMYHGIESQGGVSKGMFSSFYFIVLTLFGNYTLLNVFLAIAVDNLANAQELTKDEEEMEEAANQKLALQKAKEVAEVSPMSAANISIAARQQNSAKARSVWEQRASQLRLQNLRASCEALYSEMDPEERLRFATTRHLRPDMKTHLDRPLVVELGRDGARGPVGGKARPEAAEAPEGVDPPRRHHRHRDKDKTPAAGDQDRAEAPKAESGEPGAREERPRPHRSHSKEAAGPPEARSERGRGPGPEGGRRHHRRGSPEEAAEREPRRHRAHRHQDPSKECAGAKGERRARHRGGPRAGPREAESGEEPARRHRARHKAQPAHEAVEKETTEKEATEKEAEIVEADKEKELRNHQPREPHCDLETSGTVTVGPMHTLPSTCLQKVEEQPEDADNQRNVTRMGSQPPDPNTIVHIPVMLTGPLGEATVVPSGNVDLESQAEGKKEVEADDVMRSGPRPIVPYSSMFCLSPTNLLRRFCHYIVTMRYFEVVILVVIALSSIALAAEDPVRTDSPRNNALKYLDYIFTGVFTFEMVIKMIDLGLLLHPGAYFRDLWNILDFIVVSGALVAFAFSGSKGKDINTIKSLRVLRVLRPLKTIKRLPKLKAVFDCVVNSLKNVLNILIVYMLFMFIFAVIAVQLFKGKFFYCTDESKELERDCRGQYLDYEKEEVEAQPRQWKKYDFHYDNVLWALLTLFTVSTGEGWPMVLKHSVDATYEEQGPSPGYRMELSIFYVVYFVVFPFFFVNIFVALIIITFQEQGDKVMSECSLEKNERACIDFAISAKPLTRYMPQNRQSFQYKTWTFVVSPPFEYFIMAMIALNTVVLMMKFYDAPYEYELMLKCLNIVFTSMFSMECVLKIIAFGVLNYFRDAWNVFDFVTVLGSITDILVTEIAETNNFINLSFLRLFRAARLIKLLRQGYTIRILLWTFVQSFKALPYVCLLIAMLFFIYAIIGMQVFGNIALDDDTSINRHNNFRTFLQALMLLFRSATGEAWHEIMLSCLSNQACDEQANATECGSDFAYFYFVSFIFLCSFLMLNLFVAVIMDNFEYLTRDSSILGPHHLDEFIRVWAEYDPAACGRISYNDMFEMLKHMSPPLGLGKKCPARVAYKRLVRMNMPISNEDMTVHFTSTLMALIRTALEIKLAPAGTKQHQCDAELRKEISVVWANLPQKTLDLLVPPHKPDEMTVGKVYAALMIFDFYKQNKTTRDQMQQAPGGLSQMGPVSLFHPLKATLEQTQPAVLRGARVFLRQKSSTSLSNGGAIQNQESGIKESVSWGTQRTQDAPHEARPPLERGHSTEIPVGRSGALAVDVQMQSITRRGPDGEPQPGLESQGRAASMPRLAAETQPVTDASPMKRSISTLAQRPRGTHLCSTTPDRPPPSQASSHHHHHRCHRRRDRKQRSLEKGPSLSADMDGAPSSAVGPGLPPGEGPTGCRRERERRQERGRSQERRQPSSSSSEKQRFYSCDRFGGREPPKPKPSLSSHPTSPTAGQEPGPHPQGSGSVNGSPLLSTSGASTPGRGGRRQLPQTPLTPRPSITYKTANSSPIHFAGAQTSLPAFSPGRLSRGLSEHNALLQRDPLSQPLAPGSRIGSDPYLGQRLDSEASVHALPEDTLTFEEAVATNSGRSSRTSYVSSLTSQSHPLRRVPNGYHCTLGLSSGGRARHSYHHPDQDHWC

Structure (SMILES) | pIC50 [1] | Ratio IC50 (Homo sapiens) | pIC50 [2]
CC(C)CN1C(=O)CSC1c1cnccc1-c1ccc(Br)cc1 (stereo unspecified) | 5.08 | 12.8 | 6.18
COc1ccc(-c2ncccc2C2SCC(=O)N2CC(C)C)cc1 (stereo unspecified) | 4.69 | 2.3 | 5.05
CC(C)CN1C(=O)CSC1c1cnccc1-c1ccc(C(F)(F)F)cc1 (stereo unspecified) | 4.99 | 9.6 | 5.97
CC(C)CN1C(=O)CS[C@@H]1c1cnccc1-c1ccc(C(F)(F)F)cc1 (stereo in doubt; 59) [listing 1 of 2 here] | 4.64 |  | 6.11
Cc1ccc(-c2ccncc2[C@H]2SCC(=O)N2CC(C)C)cc1 (stereo in doubt; 61) [listing 1 of 2 here] |  | 31.8 | 
CC(C)CN1C(=O)CS[C@@H]1c1cnccc1-c1ccc(C(F)(F)F)cc1 (stereo in doubt; 58) [listing 1 of 2 here] | 4.89 |  | 5.48
C=Cc1ccc(-c2ncccc2C2SCC(=O)N2CC(C)C)cc1 (stereo unspecified) | 5.37 | 3.2 | 5.88
Cc1ccc(-c2ccncc2[C@H]2SCC(=O)N2CC(C)C)cc1 (stereo in doubt; 60) [listing 1 of 2 here] |  | 2.9 | 
CCc1ccc(-c2ccncc2C2SCC(=O)N2CC(C)C)cc1 (stereo unspecified) | 5.26 | 6.3 | 6.06
CC(C)CN1C(=O)CS[C@@H]1c1cnccc1-c1ccc(C(F)(F)F)cc1 (stereo in doubt; 58) [listing 2 of 2 here] |  | 3.9 | 
Cc1ccc(-c2ccncc2[C@H]2SCC(=O)N2CC(C)C)cc1 (stereo in doubt; 60) [listing 2 of 2 here] | 4.89 |  | 5.35
CC(C)CN1C(=O)CSC1c1cnccc1-c1ccc(F)cc1 (stereo unspecified) | 5.18 | 5.2 | 5.89
CC(C)CN1C(=O)CSC1c1cccnc1-c1ccc(Br)cc1 (stereo unspecified) | 5.21 | 8.9 | 6.15
O=C1CSC(c2ccncc2-c2ccc(C(F)(F)F)cc2)N1C1CCCC1 (stereo unspecified) | 5.37 | 3.1 | 5.86
Fc1ccc(C(c2ccc(F)cc2)N2CCN(C/C=C/c3ccccc3)CC2)cc1 [FLUNARIZINE] | 6.11 | 0.5 | 5.78
CC(C)CN1C(=O)CSC1c1ccncc1-c1ccc(F)cc1 (stereo unspecified) | 4.93 | 2.8 | 5.38
CC(C)CN1C(=O)CSC1c1cnccc1-c1ccc(Cl)cc1 (stereo unspecified) | 5.66 | 3.6 | 6.22
O=C1CSC(c2cnccc2-c2ccc(Br)cc2)N1C1CCCC1 (stereo unspecified) | 4.99 | 16.3 | 6.20
CC(C)CN1C(=O)CSC1c1cccnc1-c1ccc(Cl)cc1 (stereo unspecified) | 5.13 | 5.9 | 5.90
CC(C)CN1C(=O)CSC1c1cccnc1-c1ccc(F)cc1 (stereo unspecified) | 4.89 | 2.6 | 5.31
CC(C)CN1C(=O)CSC1c1ccncc1-c1ccc(Cl)cc1 (stereo unspecified) | 5.34 | 7.9 | 6.24
CN(C)c1ccc(-c2cnccc2C2SCC(=O)N2C2CCCC2)cc1 (stereo unspecified) | 4.74 | 1.7 | 4.97
CC(C)CNC(=O)CC1SC(c2cccc(C(F)(F)F)c2)N(CCc2ccccn2)C1=O (stereo unspecified) | 5.68 | 1.6 | 5.89

Structure (SMILES) | pIC50 [1] | Ratio IC50 (Homo sapiens) | pIC50 [2]
Cc1ccc(-c2cnccc2C2SCC(=O)N2CC(C)C)cc1 (stereo unspecified) | 5.10 | 13.6 | 6.23
CC(C)CN1C(=O)CSC1c1cnccc1-c1ccccc1 (stereo unspecified) | 4.79 | 4.1 | 5.40
O=C1CSC(c2cnccc2-c2ccc(Br)cc2)N1C1CCCCC1 (stereo unspecified) | 5.70 | 1.5 | 5.88
O=C1CSC(c2cnccc2-c2ccc(Br)cc2)N1C1CC1 (stereo unspecified) | 5.33 | 3.6 | 5.89
CC(C)CN1C(=O)CSC1c1ccncc1-c1ccc(Br)cc1 (stereo unspecified) | 5.51 | 6.1 | 6.30
CC(C)CNC(=O)CC1SC(c2ccc(F)c(Br)c2)N(CCc2ccccn2)C1=O (stereo unspecified) | 5.53 | 2.2 | 5.87
CC(C)CN1C(=O)CSC1c1cccnc1-c1ccc(C(F)(F)F)cc1 (stereo unspecified) | 5.26 | 9.7 | 6.25
O=C1C[S+]([O-])C(c2ccc(F)c(Br)c2)N1CCc1ccccn1 (stereo unspecified) | < 4.52 |  | 4.53
CC(C)CN1C(=O)COC1c1cnccc1-c1ccc(Br)cc1 (stereo unspecified) | 4.53 | 6.6 | 5.35
C=Cc1ccc(-c2ccncc2C2SCC(=O)N2CC(C)C)cc1 (stereo unspecified) | 5.00 | 19.5 | 6.29
O=C1CSC(c2ccc(F)c(Br)c2)N1CCc1ccccn1 (stereo unspecified) | 5.02 | 5.6 | 5.77
CC(C)CN1C(=O)CS[C@@H]1c1cnccc1-c1ccc(C(F)(F)F)cc1 (stereo in doubt; 59) [listing 2 of 2 here] |  | 29.1 | 
CC(C)CN1C(=O)C[S+]([O-])C1c1cnccc1-c1ccc(Br)cc1 (stereo unspecified) | 4.82 | 3.8 | 5.40
Cc1ccc(-c2ccncc2[C@H]2SCC(=O)N2CC(C)C)cc1 (stereo in doubt; 61) [listing 2 of 2 here] | 4.63 |  | 6.14
COc1ccc(-c2cnccc2C2SCC(=O)N2CC(C)C)cc1 (stereo unspecified) | 4.86 | 9.5 | 5.85
CCC(C)N1C(=O)CSC1c1cnccc1-c1ccc(Br)cc1 (stereo unspecified) | 5.63 | 11.2 | 6.68
COc1ccc(CN2CCN(C(c3ccc(F)cc3)c3ccc(F)cc3)CC2)c(OC)c1OC [LOMERIZINE] | 5.83 | 0.6 | 5.61
Cc1ccc(-c2ncccc2C2SCC(=O)N2CC(C)C)cc1 (stereo unspecified) | 4.90 | 6.4 | 5.71
C=Cc1ccc(-c2cnccc2C2SCC(=O)N2CC(C)C)cc1 (stereo unspecified) | 5.38 | 7.8 | 6.28
Cc1ccc(-c2ccncc2C2SCC(=O)N2CC(C)C)cc1 (stereo unspecified) | 5.09 | 16.7 | 6.31
O=C1CS(=O)(=O)C(c2ccc(F)c(Br)c2)N1CCc1ccccn1 (stereo unspecified) | < 4.52 |  | 5.09
O=C1CSC(c2cccc(C(F)(F)F)c2)N1CCc1ccccn1 (stereo unspecified) | 4.94 | 4.8 | 5.62
